Measurements: US7531629B2, “Tumor associated antigen peptides and use of same as anti-tumor vaccines” (Yeda Research and Development Co. Ltd., priority 1998, dated 2009)

Assays:
RMA-S-HhD cells [1] = assay: CTL from peptide-immunized HhD mice against loaded RMA-S-HhD target cells; format: in vivo; conditions: for ability to evoke specific CTL responses (lysis of peptide-loaded target cells): additional Uroplakin Ib, II, III peptides, three weekly immunizations, FIGS. 23a-e; for lysis of RMA-S-HhD target cells loaded with MUC-1 peptide: immunization with a pool of the MUC-1-derived synthetic peptides; for lysis of RMA-S-HhD targets loaded with homologous BA-46 peptide: CTL from HhD mice immunized with BA-46 peptides; for lymphocyte response specifically lysing CRIPTO-1 peptide-loaded target cells: HhD mice immunized with CRIPTO-1 peptide pools, FIGS. 24a-c
Procedure: (§1) Vaccination: Mice were immunized intraperitonealy three times at 7-day intervals, with 2×10^6 irradiated (5,000 rad) tumor cells, or with peptide-loaded RMA-S-HhD-B7.1 transfectants. Peptide loading of RMA-S-HhD-B7.1 cells was performed as follows: After washing the cells 3 times in PBS, the surface expression of HhD monochins was stabilized by a 4 hours culture at 26° C. Synthetic peptides, or peptide extracts were added to 10×10^6 cells in 1 ml of opti-MEM (Gibco) medium to a concentration of 100 μM or 1 mM, respectively. The cells were incubated at 26° C. and for additional 3 hours at 37° C. Peptide loaded RMA-S-HhDσ-σB7.1 cells were irradiated (5000 rad), washed, resuspended in PBS and injected into mice. In mixed synthetic vaccines, RMA-S-HhD-B7.1 cells were loaded separately with each peptide and pooled before vaccination.
(§2) In vitro cytotoxicity assays: Mice were immunized intraperitonealy three times at 7-day intervals, with 2×10^6 irradiated (5,000 rad) tumor cells, or with peptide-loaded RMA-S-HhD-B7.1 transfectants. Spleens were removed on day 10 after the last immunization and splenocytes were restimulated in vitro with either irradiated tumor cells (for mice immunized with tumor cells) or with lymphocytes pulsed with 100 μM synthetic peptides or 1 mM patients-derived extract in opti-MEM (Gibco) medium. Restimulated lymphocytes were maintained in RPMI 1640 medium containing 10% FCS, 1 mM glutamine, combined antibiotics, 1 mM sodium pyruvate, 10 mM HEPES, pH 7.4, 5×10^−5 M β-mercaptoethanol, and 1% nonessential amino acids (RPMI-HEPES medium) for 5 days. Viable lymphocytes (effector cells), were separated by lymphocyte-M (Cedarlane, Ontario, Canada) centrifugation, resuspended in RPMI-HEPES medium, and admixed at different ratios with 5×10^3 peptide loaded RMA-S-HhD cells, previously loaded with different peptides (see vaccination). CTL assays were performed in U-shaped microtiter wells, at 37° C., 5% CO2 for 5 hours. Cultures were terminated by centrifugation at 1,000 rpm for 10 minutes at 4° C. A total of 100 μl of the supernatants was mixed with scintillation fluids and counted in a beta counter. […] Spontaneous release was determined by incubation of 100 μl-labeled target cells with 100 μl of medium. Maximal release was determined by solubilization of target cells in 100 μl 0.1 M NaOH.
CTL induced in HhD mice recognize the same UP II peptides as human PBL: The immunogenicity of Uroplakin homologue peptides was also evaluated in a mouse model, in which the murine MHC class I genes are not expressed (D^b−/−, β2-microglobulin −/−, double knockout) and which is transgenic for a HLA-A2 and human β2-microglobulin monochain (HhD mice). The advantage of a HLA-A2 transgenic mouse model is that CTL epitopes can be detected more easily and reproducibly, without lengthy and repeated in vitro stimulations. The murine MHC knockout mice used herein has the additional advantage that their CTL repertoire is only HLA-A2 restricted and the CTL response against human tumor extract or human cell lines is not masked by a potential xenogeneic response. HhD mice were immunized with the 7 Uroplakin II homologue peptides or with the same TCC peptide extract used for stimulation of patient's PBL. Lymphocytes were obtained from the spleens of these mice and restimulated in vitro once with the corresponding peptides. […]

[2] = MHC stabilization assay: peptide binding to HhD on RMA-S-HhD cells, indirect FACS; design: species or system human; conditions: peptide loaded RMA-S-HhD cells
Procedure: Measurement of peptide binding by stabilization of cell surface MHC: Peptide binding to HhD was measured by stabilization of HhD on RMA-S transfectants, using an indirect FACS assay as follows: 5×10^5 peptide loaded TAP-2 deficient RMA-S-HhD cells (see vaccination), were incubated with anti HLA monoclonal antibodies for 30 minutes at 4° C. After washing the cells with PBS-0.5%, BSA+0.1%, sodium azide, the second antibody, goat anti mouse-FITC (Jackson Lab.), was applied for 30 minutes at 4° C. Following washing, the amount of bound antibodies was detected by FACSscan […].
Mouse monoclonal antibodies. B-9-12, w6/32 (anti HLA A, B, C) and B.B7.2 (anti HLA-A2.1) were used for analyses.
Cytotoxic activity of human peripheral blood lymphocytes (PBL) against target cells pulsed with Uroplakin II peptide homologues: The human UP II amino acid sequence was screened for potential HLA-A2 binding, 9 amino acids peptides by a HLA binding motif program. We chose that particular HLA allele because it is present in 45% of the population. Seven 9-mer peptides, which were predicted to bind with high affinity to HLA-A2 were selected and synthesized (Table 1). The binding of these peptides to HLA-A2 was tested by an MHC stabilization assay utilizing TAP negative cells, which can present exogeneously bound peptides. The RMA-S cells (30) transfected by the HhD construct were loaded with various concentrations of UP II peptides and then reacted with anti-HLA antibody. High affinity binding was shown for all 7 peptides by FACS analyses (FIG. 1).

RMA-S-HhD cells [3] = assay: CTL from HhD mice immunized with tumor extracted peptides or DU145-HhD cells against loaded RMA-S-HhD target cells; format: cell-based; conditions: for recognition and lysis of peptide loaded targets by anti-tumor extract CTL: CTL against breast tumor peptide extracts, E:T 50:1
Procedure: as §1
as §2, with “Cultures were terminated by centrifugation at 1,000 rpm for 10 minutes at 4° C.” left out
CTL induced in HhD mice recognize the same UP II peptides as human PBL: The immunogenicity of Uroplakin homologue peptides was also evaluated in a mouse model, in which the murine MHC class I genes are not expressed (D^b−/−, β2-microglobulin −/−, double knockout) and which is transgenic for a HLA-A2 and human β2-microglobulin monochain (HhD mice). The advantage of a HLA-A2 transgenic mouse model is that CTL epitopes can be detected more easily and reproducibly, without lengthy and repeated in vitro stimulations. […]

MDA-MB-157-HhD cells = assay: Lysis of MDA-MB-157-HhD breast carcinoma cells by CTL from immunized HhD mice; format: in vitro; conditions: CTL from HhD mice immunized with the named substance
prostate cancer = conditions: DC based vaccine, 51 prostate cancer patients, HLA-A2; cited from earlier work
T2 cells = assay: CTL assay with patients' PBL resensitized with pooled TCC extracted peptides; format: cell-based, human; conditions: CTL from TCC patients' PBL

Sequence: AILCWTFWV (listed as Homo sapiens) [Uroplakin Ib/B1]
- ability to evoke specific CTL responses (lysis of peptide-loaded target cells) (RMA-S-HhD cells [1]): could elicit lymphocytes which specifically lysed target cells

Sequence: ALASTAPPV (listed as Homo sapiens) [MUC-1/E6]
- peptide binding to HhD, stabilization of cell surface HhD (FACS) [2]: higher binding affinity
- lysis of RMA-S-HhD target cells loaded with MUC-1 peptide (RMA-S-HhD cells [1]): 15%
- recognition and lysis of peptide loaded targets by anti-tumor extract CTL (RMA-S-HhD cells [3]): recognized and lysed
- lysis of breast carcinoma line HhD transfectant (MDA-MB-157-HhD) relative to parental cells (MDA-MB-157-HhD cells): Preferential lysis

Sequence: ALFDIESKV (listed as Homo sapiens) [PSMA5]
- patients responding by decreased levels of serum PSA (prostate cancer): 7 patients

Sequence: FILMFIVYA (listed as Homo sapiens) [Uroplakin Ib/B2]
- ability to evoke specific CTL responses (lysis of peptide-loaded target cells) (RMA-S-HhD cells [1]): could elicit lymphocytes which specifically lysed target cells

Sequence: FLLVGFAGA (listed as Homo sapiens) [Uroplakin III/3.3]
- ability to evoke specific CTL responses (lysis of peptide-loaded target cells) (RMA-S-HhD cells [1]): could elicit lymphocytes which specifically lysed target cells

Sequence: FLSFHISNL (listed as Homo sapiens) [MUC-1/F6]
- lysis of RMA-S-HhD target cells loaded with MUC-1 peptide (RMA-S-HhD cells [1]): 15%

Sequence: GLQHWVPEL (listed as Homo sapiens) [BA-46-7]
- lysis of RMA-S-HhD targets loaded with homologous BA-46 peptide (RMA-S-HhD cells [1]): 60%

Sequence: ILCWTFWVL (listed as Homo sapiens) [Uroplakin Ib/B5]
- ability to evoke specific CTL responses (lysis of peptide-loaded target cells) (RMA-S-HhD cells [1]): could elicit lymphocytes which specifically lysed target cells

Sequence: ILNAYLVRV (listed as Homo sapiens) [Uroplakin III/3.2]
- ability to evoke specific CTL responses (lysis of peptide-loaded target cells) (RMA-S-HhD cells [1]): could elicit lymphocytes which specifically lysed target cells

Sequence: KILLAYFIL (listed as Homo sapiens) [Uroplakin Ib/B6]
- ability to evoke specific CTL responses (lysis of peptide-loaded target cells) (RMA-S-HhD cells [1]): could elicit lymphocytes which specifically lysed target cells

Sequence: KMARFSYSV (listed as Homo sapiens) [Cripto-1/C1]
- lymphocyte response specifically lysing CRIPTO-1 peptide-loaded target cells (RMA-S-HhD cells [1]): can elicit lymphocyte response which specifically lyses CRIPTO-1 peptide-loaded target cells

Sequence: KMVRFSYSV (listed as Homo sapiens) [Cripto-1/C10]
- lymphocyte response specifically lysing CRIPTO-1 peptide-loaded target cells (RMA-S-HhD cells [1]): can elicit lymphocyte response which specifically lyses CRIPTO-1 peptide-loaded target cells

Sequence: LLLTVLTVV (listed as Homo sapiens) [MUC-1/D6]
- peptide binding to HhD, stabilization of cell surface HhD (FACS) [2]: higher binding affinity
- lysis of RMA-S-HhD target cells loaded with MUC-1 peptide (RMA-S-HhD cells [1]): 38%
- recognition and lysis of peptide loaded targets by anti-tumor extract CTL (RMA-S-HhD cells [3]): recognized and lysed
- lysis of breast carcinoma line HhD transfectant (MDA-MB-157-HhD) relative to parental cells (MDA-MB-157-HhD cells): Preferential lysis

Sequence: MLAGICLSI (listed as Homo sapiens) [Cripto-1/C12]
- lymphocyte response specifically lysing CRIPTO-1 peptide-loaded target cells (RMA-S-HhD cells [1]): can elicit lymphocyte response which specifically lyses CRIPTO-1 peptide-loaded target cells

Sequence: MLVGICLSI (listed as Homo sapiens) [Cripto-1/C8]
- lymphocyte response specifically lysing CRIPTO-1 peptide-loaded target cells (RMA-S-HhD cells [1]): can elicit lymphocyte response which specifically lyses CRIPTO-1 peptide-loaded target cells

Sequence: NLFETPVEA (listed as Homo sapiens) [BA-46-6]
- lysis of RMA-S-HhD targets loaded with homologous BA-46 peptide (RMA-S-HhD cells [1]): 40%

Sequence: NLTISDVSV (listed as Homo sapiens) [MUC-1/A7]
- peptide binding to HhD, stabilization of cell surface HhD (FACS) [2]: higher binding affinity
- lysis of RMA-S-HhD target cells loaded with MUC-1 peptide (RMA-S-HhD cells [1]): 30%
- recognition and lysis of peptide loaded targets by anti-tumor extract CTL (RMA-S-HhD cells [3]): recognized and lysed
- lysis of breast carcinoma line HhD transfectant (MDA-MB-157-HhD) relative to parental cells (MDA-MB-157-HhD cells): Preferential lysis

Sequence: RLLAALCGA (listed as Homo sapiens) [BA-46-9]
- lysis of RMA-S-HhD targets loaded with homologous BA-46 peptide (RMA-S-HhD cells [1]): 40%

Sequence: VLLSVAMFL (listed as Homo sapiens) [Uroplakin II/8]
- ability to evoke specific CTL responses (lysis of peptide-loaded target cells) (RMA-S-HhD cells [1]): could elicit lymphocytes which specifically lysed target cells

Sequence: YMDGTMSQV [Tyrosinase, reference compound]
- lysis of T2 cells loaded with nonspecific peptides (T2 cells): no lysis
- lysis of loaded RMA-S-HhD cells, lytic units (LU30) (RMA-S-HhD cells [1]; CTL from HhD mice immunized with human Uroplakin II peptides 1-7, substance loaded on targets): no lysis
- ability to evoke specific CTL responses (lysis of peptide-loaded target cells) (RMA-S-HhD cells [1]): no significant lysis
- lysis of targets loaded with nonspecific peptides (RMA-S-HhD cells [1]; overall, all immunized groups of Example 2): no lysis
- specific lysis of loaded RMA-S-HhD cells (RMA-S-HhD cells [3]; CTL from HhD mice immunized with breast tumor extract peptide, E:T 100:1): No lysis
